The supplement of paper PMC10307832

Key:
Test in all cases: relative viability (nuclei count vs DMSO), 5 days (fraction); higher = more cells survive
A549 = test system: A549
In short: (§1)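 The day after seeding in 1536-well plates, lung cancer cell lines were treated by pin tool with a single drug, or with a fixed anchor-drug dose together with five library-drug doses (not always all listed) in √10 steps. After 5 days, a combined fix-and-stain solution (final 0.05% Triton X-100, 1% formaldehyde, 1 ug/ml Hoechst) was added. Nuclei counted on 4× images gave relative viability as treated counts over vehicle counts, reported as the median of duplicate plates.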

NCI-H1648 = test system: NCI-H1648
In short: as §1

NCI-H1651 = test system: NCI-H1651
In short: as §1

NCI-H1944 = test system: NCI-H1944
In short: as §1

NCI-H520 = test system: NCI-H520
In short: as §1

NCI-H650 = test system: NCI-H650
In short: as §1

NCI-H838 = test system: NCI-H838
In short: as §1

PC-3 [JPC-3] = test system: PC-3 [JPC-3]
In short: as §1

RERF-LC-KJ = test system: RERF-LC-KJ
In short: as §1

IA-LM = test system: IA-LM
In short: as §1

Q: For `Nc1ccn([C@@H]2O[C@H](CO)[C@@H](O)[C@@H]2O)c(=O)n1` [Cytarabine] + Nc1ncn([C@H]2C[C@H](O)[C@@H](CO)O2)c(=O)n1 [Decitabine] (partner 2 µM), which relative viability (A549; first compound 0.005 µM) is on record?
A: The relative viability was 0.215.

Q: And the relative viability (A549; first compound 0.01581 µM)?
A: The relative viability was 0.115.

Q: And the relative viability (A549; first compound 0.05 µM)?
A: The relative viability was 0.161.

Q: What about the relative viability (A549; first compound 0.1581 µM) of the same compound?
A: The relative viability was 0.0447.

Q: And the relative viability (A549; first compound 0.5 µM)?
A: The relative viability was 0.0287.

Q: And the relative viability (NCI-H1648; first compound 0.005 µM)?
A: The relative viability was 0.479.

Q: And the relative viability (NCI-H1648; first compound 0.01581 µM)?
A: The relative viability was 0.526.

Q: What about the relative viability (NCI-H1648; first compound 0.05 µM) of the same compound?
A: The relative viability was 0.502.

Q: What about the relative viability (NCI-H1648; first compound 0.1581 µM) of the same compound?
A: Its relative viability is 0.35.

Q: And the relative viability (NCI-H1648; first compound 0.5 µM)?
A: Its relative viability is 0.362.

Q: And the relative viability (NCI-H1651; first compound 0.005 µM)?
A: Its relative viability is 0.646.

Q: And the relative viability (NCI-H1651; first compound 0.01581 µM)?
A: Its relative viability is 0.493.

Q: And the relative viability (NCI-H1651; first compound 0.05 µM)?
A: The relative viability was 0.167.

Q: What about the relative viability (NCI-H1651; first compound 0.1581 µM) of the same compound?
A: The relative viability was 0.281.

Q: And the relative viability (NCI-H1651; first compound 0.5 µM)?
A: Its relative viability is 0.213.

Q: What about the relative viability (NCI-H1944; first compound 0.005 µM) of the same compound?
A: Its relative viability is 0.335.

Q: What about the relative viability (NCI-H1944; first compound 0.01581 µM) of the same compound?
A: Its relative viability is 0.347.

Q: What about the relative viability (NCI-H1944; first compound 0.05 µM) of the same compound?
A: Its relative viability is 0.319.

Q: What about the relative viability (NCI-H1944; first compound 0.1581 µM) of the same compound?
A: Its relative viability is 0.194.

Q: What about the relative viability (NCI-H1944; first compound 0.5 µM) of the same compound?
A: Its relative viability is 0.151.

Q: What about the relative viability (NCI-H520; first compound 0.005 µM) of the same compound?
A: Its relative viability is 0.48.

Q: What about the relative viability (NCI-H520; first compound 0.01581 µM) of the same compound?
A: Its relative viability is 0.564.

Q: What about the relative viability (NCI-H520; first compound 0.05 µM) of the same compound?
A: Its relative viability is 0.53.

Q: What about the relative viability (NCI-H520; first compound 0.1581 µM) of the same compound?
A: Its relative viability is 0.343.

Q: And the relative viability (NCI-H520; first compound 0.5 µM)?
A: Its relative viability is 0.349.

Q: And the relative viability (NCI-H650; first compound 0.005 µM)?
A: Its relative viability is 0.326.

Q: What about the relative viability (NCI-H650; first compound 0.01581 µM) of the same compound?
A: Its relative viability is 0.255.

Q: What about the relative viability (NCI-H650; first compound 0.05 µM) of the same compound?
A: Its relative viability is 0.247.

Q: What about the relative viability (NCI-H650; first compound 0.1581 µM) of the same compound?
A: The relative viability was 0.152.

Q: And the relative viability (NCI-H650; first compound 0.5 µM)?
A: The relative viability was 0.152.

Q: What about the relative viability (NCI-H838; first compound 0.005 µM) of the same compound?
A: Its relative viability is 0.476.

Q: And the relative viability (NCI-H838; first compound 0.01581 µM)?
A: The relative viability was 0.407.

Q: And the relative viability (NCI-H838; first compound 0.05 µM)?
A: The relative viability was 0.427.

Q: What about the relative viability (NCI-H838; first compound 0.1581 µM) of the same compound?
A: The relative viability was 0.311.

Q: And the relative viability (NCI-H838; first compound 0.5 µM)?
A: The relative viability was 0.274.

Q: What about the relative viability (PC-3 [JPC-3]; first compound 0.005 µM) of the same compound?
A: The relative viability was 0.824.

Q: And the relative viability (PC-3 [JPC-3]; first compound 0.01581 µM)?
A: The relative viability was 0.763.

Q: And the relative viability (PC-3 [JPC-3]; first compound 0.05 µM)?
A: Its relative viability is 0.581.

Q: What about the relative viability (PC-3 [JPC-3]; first compound 0.1581 µM) of the same compound?
A: Its relative viability is 0.468.

Q: And the relative viability (PC-3 [JPC-3]; first compound 0.5 µM)?
A: Its relative viability is 0.507.

Q: And the relative viability (RERF-LC-KJ; first compound 0.005 µM)?
A: Its relative viability is 0.677.

Q: And the relative viability (RERF-LC-KJ; first compound 0.01581 µM)?
A: Its relative viability is 0.568.

Q: And the relative viability (RERF-LC-KJ; first compound 0.05 µM)?
A: The relative viability was 0.475.

Q: What about the relative viability (RERF-LC-KJ; first compound 0.1581 µM) of the same compound?
A: The relative viability was 0.342.

Q: What about the relative viability (RERF-LC-KJ; first compound 0.5 µM) of the same compound?
A: The relative viability was 0.29.

Q: What does the source list for `Nc1ccn([C@@H]2O[C@H](CO)[C@@H](O)[C@@H]2O)c(=O)n1` [Cytarabine] + O=C(CCCCCCC(=O)Nc1ccccc1)NO [Vorinostat] (partner 1 µM)?
A: relative viability (IA-LM; first compound 0.005 µM): 0.868; relative viability (IA-LM; first compound 0.01581 µM): 1.03; relative viability (IA-LM; first compound 0.05 µM): 1.07; relative viability (IA-LM; first compound 0.1581 µM): 0.518; relative viability (IA-LM; first compound 0.5 µM): 0.578; relative viability (NCI-H1648; first compound 0.005 µM): 0.4; relative viability (NCI-H1648; first compound 0.01581 µM): 0.354; relative viability (NCI-H1648; first compound 0.05 µM): 0.556; relative viability (NCI-H1648; first compound 0.1581 µM): 0.408; relative viability (NCI-H1648; first compound 0.5 µM): 0.357; relative viability (NCI-H1651; first compound 0.005 µM): 0.585; relative viability (NCI-H1651; first compound 0.01581 µM): 0.535; relative viability (NCI-H1651; first compound 0.05 µM): 0.242; relative viability (NCI-H1651; first compound 0.1581 µM): 0.489; relative viability (NCI-H1651; first compound 0.5 µM): 0.417; relative viability (NCI-H1944; first compound 0.005 µM): 0.508; relative viability (NCI-H1944; first compound 0.01581 µM): 0.326; relative viability (NCI-H1944; first compound 0.05 µM): 0.309; relative viability (NCI-H1944; first compound 0.1581 µM): 0.203; relative viability (NCI-H1944; first compound 0.5 µM): 0.159; relative viability (NCI-H520; first compound 0.005 µM): 0.636; relative viability (NCI-H520; first compound 0.01581 µM): 0.668; relative viability (NCI-H520; first compound 0.05 µM): 0.776; relative viability (NCI-H520; first compound 0.1581 µM): 0.555; relative viability (NCI-H520; first compound 0.5 µM): 0.502; relative viability (NCI-H650; first compound 0.005 µM): 0.417; relative viability (NCI-H650; first compound 0.01581 µM): 0.315; relative viability (NCI-H650; first compound 0.05 µM): 0.212; relative viability (NCI-H650; first compound 0.1581 µM): 0.136; relative viability (NCI-H650; first compound 0.5 µM): 0.112; relative viability (NCI-H838; first compound 0.005 µM): 0.715; relative viability (NCI-H838; first compound 0.01581 µM): 0.651; relative viability (NCI-H838; first compound 0.05 µM): 0.654; relative viability (NCI-H838; first compound 0.1581 µM): 0.515; relative viability (NCI-H838; first compound 0.5 µM): 0.318; relative viability (PC-3 [JPC-3]; first compound 0.005 µM): 0.78; relative viability (PC-3 [JPC-3]; first compound 0.01581 µM): 0.775; relative viability (PC-3 [JPC-3]; first compound 0.05 µM): 0.546; relative viability (PC-3 [JPC-3]; first compound 0.1581 µM): 0.466; relative viability (PC-3 [JPC-3]; first compound 0.5 µM): 0.592; relative viability (RERF-LC-KJ; first compound 0.005 µM): 0.569; relative viability (RERF-LC-KJ; first compound 0.01581 µM): 0.66; relative viability (RERF-LC-KJ; first compound 0.05 µM): 0.513; relative viability (RERF-LC-KJ; first compound 0.1581 µM): 0.474; relative viability (RERF-LC-KJ; first compound 0.5 µM): 0.393
